Results on 1 molecule are retold here after US7932253B2, “Immunomodulating oxopyrrazolocinnolines as CD80 inhibitors” (MediGene AG, priority 2004, dated 2011).

One experiment addresses T1, CD80-CD28 interaction (Homo sapiens, UniProt P33681).
T1 construct: mouse Fab fragment (fusion partner)
T1 sequence (P33681 35-242 limits assumed): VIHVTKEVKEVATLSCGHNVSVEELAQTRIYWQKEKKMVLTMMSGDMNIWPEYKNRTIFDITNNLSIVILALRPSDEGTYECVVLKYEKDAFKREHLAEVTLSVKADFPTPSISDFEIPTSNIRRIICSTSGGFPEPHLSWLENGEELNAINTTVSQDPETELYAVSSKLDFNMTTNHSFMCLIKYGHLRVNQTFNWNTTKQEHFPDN
Nature of the experiment: Homogeneous time resolved fluorescence (TR-Fret) assay, cell free. The experiment is classed as biochemical. The settings on record: inhibition of the CD80-CD28 interaction; 4 hours at room temperature. On the procedure:
The compound was tested in a cell free homogenous time resolved fluorescence (HT-Fret) assay to determine their activity as an inhibitor of the CD80-CD28 interaction.
In the assay, europium and allophycocyanin (APC) are associated with CD28 and CD80 indirectly (through antibody linkers) to form a complex, which brings the europium and APC into close proximity to generate a signal. The complex comprises the following six proteins: fluorescent label 1, linker antibody 1, CD28 fusion protein, CD80 fusion protein, linker antibody 2, and fluorescent label 2. The table below describes these reagents in greater detail.
On formation of the complex, europium and APC are brought into proximity and a signal is generated.
Non-specific interaction was measured by substituting a mouse Fab fragment (C215) for the CD80 mouse Fab fragment fusion protein (1.9 μg/ml). The assay was carried out in black 384 well plates in a final volume of 30 μl. Assay buffer: 50 mM Tris-HCl, 150 mM NaCl pH7.8, containing 0.1% BSA (w/v) added just prior to use.
Compounds were added to the above reagents in a concentration series ranging between 100 μM-1.7 nM. The reaction was incubated for 4 hours at room temperature. Dual measurements were made using a Wallac Victor 1420 Multilabel Counter. […] Counts were automatically corrected for fluorescence crossover, quenching and background.

The target in experiment [1] is T2, Biotinylated human CD80 (hCD80-BT) (Homo sapiens, UniProt P33681).
T2 construct: biotin (biotinylation)
T2 sequence (P33681 35-242 limits assumed): T1 sequence (P33681 35-242 limits assumed)
The experiment in a line: BIAcore biomolecular interaction assay. It counts as binding. Conditions: hCD80-BT immobilised on streptavidin-coated sensor chip; compound 1000 nM-0.05 nM. From the text:
Biotinylated human CD80 (hCD80-BT) is a recombinant soluble form of a membrane bound receptor molecule (CD80) which binds to CD28 to initiate T cell activation. The interaction between CD80 and CD28 has been extensively investigated (Collins et al, 2002). Biotinlyated human HLA-A2-tax is the recombinant soluble form of a membrane bound receptor molecule used as a control protein, and is not expected to interact with the compound.
The BIAcore S51™ system was used for screening the compounds of Examples 1-4 above. A series S sensor chip CM5 was docked onto the BIAcore S51™. Streptavidin was coupled to the carboxymethyl surface using standard amine coupling. The chip surface was activated with 0.2M EDC/0.05M NHS, followed by binding of streptavidin (0.25 mg/ml in 10 mM sodium acetate pH 5.0) and saturation of unoccupied sites with […].
The BIAcore S51 sensor chip has two separate sensor spots for immobilisation of proteins. hCD80-BT was immobilised on the streptavidin-coated surface of one sensor spot until a response of approximately 3000 RU was observed. A protein to control for non-specific binding of the compound was immobilised on a second sensor spot. […]
BIAcore S51™ was run at a flow rate of 30 μl/min using running buffer. […] Data were recorded automatically and were analysed using BIAcore S51 Evaluation software.

The molecule `O=C(N[C@H]1CN2CCC1CC2)c1ccc(-n2[nH]c3c(nnc4c(F)ccc(F)c43)c2=O)cc1` [The compound, (R)—N-(1-Aza-bicyclo[2.2.2]oct-3-yl)-4-(6,9-difluoro-3-oxo-1,3-dihydro-pyrazolo[4,3-c]cinnolin-2-yl)-benzamide] had an EC50 at CD80-CD28 interaction of 0.82 nM. This molecule came in with a Kd in experiment [1] of 0.35 nM.
